Measured values as given in PubChem BioAssay (NCI).
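Cultured in 96-well plates, cells were exposed to test compound for 48 hours across five concentrations. At the GI50, growth is halved. TGI: total growth inhibition.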

Experiments:
Test in all cases: NCI-60 cell line screen, 48 h
[1] = tested on: SW-620 colon
[2] = tested on: HT29 colon
[3] = tested on: UO-31 renal
[4] = tested on: NCI-H460 lung
[5] = tested on: RPMI-8226 leukemia
[6] = tested on: HCT-116 colon
[7] = tested on: HCC-2998 colon
[8] = tested on: OVCAR-4 ovarian
[9] = tested on: NCI-H23 lung
[10] = tested on: SNB-19 CNS

| SMILES | GI50 [1] [µM] | TGI [1] [µM] | GI50 [2] [µM] | TGI [2] [µM] | GI50 [3] [µM] | TGI [3] [µM] | GI50 [4] [µM] | TGI [4] [µM] | GI50 [5] [µM] | TGI [5] [µM] | GI50 [6] [µM] | TGI [6] [µM] | GI50 [7] [µM] | TGI [7] [µM] | GI50 [8] [µM] | TGI [8] [µM] | GI50 [9] [µM] | TGI [9] [µM] | GI50 [10] [µM] | TGI [10] [µM] |
| --- | --- | --- | --- | --- | --- | --- | --- | --- | --- | --- | --- | --- | --- | --- | --- | --- | --- | --- | --- | --- |
| CC(=O)OC1CC2(O)C(CCC3(C)C(c4ccc(=O)oc4)CCC32O)C2(C)CCC(OC3OC(CO)C(O)C(O)C3O)C=C12 (stereo not given) | 0.0275 | 0.144 | 0.045 | 0.381 | 0.0182 | 0.0466 | < 0.01 | 0.0282 | 0.0309 | 0.162 | 0.0111 | 0.105 | 0.0735 | 0.419 | 0.0273 | 0.153 | 0.0114 | 0.0539 | 0.0461 | 0.165 |
| COc1ccc(Nc2ncc(-c3ccccc3)o2)cc1OC | 14.9 | > 25 | 16.3 | > 25 | 9.29 | > 25 | 13.4 | > 25 | > 24 | > 25 | 9.37 | > 25 | > 25 | > 25 | > 22.2 | > 25 | > 25 | > 25 | > 25 | > 25 |
| CC(=O)[O][Hg][CH2]C1(C)COC(C)([CH2][Hg][O]C(C)=O)CO1 (stereo not given) | 1.51 | 3.11 | 6.67 | > 59.2 | 5.07 | 9.83 | 15.7 | 40.4 | 1.17 | 8.29 | 1.22 | 6.58 | 15.7 | 30.2 | 26.4 | 74.4 | 13.2 | 29.3 | 16.1 | 30 |
